The text below walks through data of patent publication US7919468B2, “Compounds useful as modulators of the proteasome activity” (Centre National de la Recherche Scientifique (C.N.R.S.), priority 2005, dated 2011).

The target in one data set is T1, cathepsin A (Homo sapiens, UniProt P10619).
T1 sequence (P10619 29-480): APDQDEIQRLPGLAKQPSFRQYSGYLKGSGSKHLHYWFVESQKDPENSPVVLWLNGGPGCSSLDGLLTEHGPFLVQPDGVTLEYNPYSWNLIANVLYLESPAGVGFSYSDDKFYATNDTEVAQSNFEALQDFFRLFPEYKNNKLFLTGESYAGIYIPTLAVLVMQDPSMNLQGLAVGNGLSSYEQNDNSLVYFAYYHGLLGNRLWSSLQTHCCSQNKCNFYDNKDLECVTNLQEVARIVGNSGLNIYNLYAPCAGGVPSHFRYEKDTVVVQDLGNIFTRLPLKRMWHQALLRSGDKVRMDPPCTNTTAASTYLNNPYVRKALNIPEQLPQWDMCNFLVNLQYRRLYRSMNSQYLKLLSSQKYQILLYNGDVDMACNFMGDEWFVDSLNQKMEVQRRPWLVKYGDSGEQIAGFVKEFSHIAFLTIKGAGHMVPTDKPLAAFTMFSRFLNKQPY
The following applies: cited from earlier work.

Data set [1] addresses cytosolic tripeptidyl peptidase II (Homo sapiens, UniProt P29144). The following applies: cited from earlier work.
The next data set has as its target T2, m-calpain (Homo sapiens, UniProt P17655).
T2 sequence (P17655 1-700): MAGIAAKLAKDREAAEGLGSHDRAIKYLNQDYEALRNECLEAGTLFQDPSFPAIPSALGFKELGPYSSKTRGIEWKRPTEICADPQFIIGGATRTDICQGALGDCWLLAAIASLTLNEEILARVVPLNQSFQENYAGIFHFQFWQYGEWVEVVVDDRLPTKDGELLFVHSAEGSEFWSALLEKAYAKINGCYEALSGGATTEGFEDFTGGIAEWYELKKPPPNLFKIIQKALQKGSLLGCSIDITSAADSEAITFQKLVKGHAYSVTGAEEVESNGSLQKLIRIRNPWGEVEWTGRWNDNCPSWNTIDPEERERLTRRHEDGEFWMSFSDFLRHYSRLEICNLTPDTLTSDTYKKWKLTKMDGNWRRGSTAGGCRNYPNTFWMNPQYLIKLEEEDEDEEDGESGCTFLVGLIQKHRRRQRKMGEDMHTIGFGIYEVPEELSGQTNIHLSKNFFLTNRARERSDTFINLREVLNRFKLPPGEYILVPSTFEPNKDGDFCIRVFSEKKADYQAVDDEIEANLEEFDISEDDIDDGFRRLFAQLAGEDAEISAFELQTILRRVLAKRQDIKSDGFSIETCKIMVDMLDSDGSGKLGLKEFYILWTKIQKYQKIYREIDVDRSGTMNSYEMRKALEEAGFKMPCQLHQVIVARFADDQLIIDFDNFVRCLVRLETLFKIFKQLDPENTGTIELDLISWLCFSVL
T2 sequence (P04632 1-268 partner): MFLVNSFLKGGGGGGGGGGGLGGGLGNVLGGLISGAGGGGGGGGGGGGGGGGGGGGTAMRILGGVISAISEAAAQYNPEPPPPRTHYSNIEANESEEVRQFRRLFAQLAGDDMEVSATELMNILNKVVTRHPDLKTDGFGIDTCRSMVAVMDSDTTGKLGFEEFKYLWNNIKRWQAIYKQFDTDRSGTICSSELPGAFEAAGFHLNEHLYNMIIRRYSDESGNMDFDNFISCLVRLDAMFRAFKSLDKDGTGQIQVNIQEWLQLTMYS
The following applies: cited from earlier work.

Another data set deals with cathepsin-L (Homo sapiens, UniProt P07711). The following applies: cited from earlier work.
The next data set deals with T3, trypsin (Bos taurus, UniProt P00760).
T3 construct: gene PRSS1
T3 sequence (P00760 24-246): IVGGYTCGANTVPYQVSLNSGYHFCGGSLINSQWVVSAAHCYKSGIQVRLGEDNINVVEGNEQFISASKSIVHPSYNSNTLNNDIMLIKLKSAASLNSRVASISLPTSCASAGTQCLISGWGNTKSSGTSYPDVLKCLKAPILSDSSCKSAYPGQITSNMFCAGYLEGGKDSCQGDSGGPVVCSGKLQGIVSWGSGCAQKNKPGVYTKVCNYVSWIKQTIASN
The following applies: cited from earlier work.

The test system of data set [2] is T4, rabbit 20S proteasome, chymotrypsin-like (CT-L) activity.
T4 construct: other: [Compound]=100 μM, pH 7.5, 30° C
The data set is described as follows: Rabbit 20S proteasome fluorescent assay, chymotrypsin-like activity (Suc-LLVY-amc). The class given is biochemical. The following applies: [Compound]=100 μM, pH 7.5, 30° C. As to the method:
(§1) 20S proteasome from rabbit reticulocyte was from commercial source (Alexis Biochemicals)
(§2) Semi-automatic fluorescent assays using Suc-LLVY-amc (SEQ ID NO: 2) for chymotrypsin-like activity, Z-LLE-SNA for post-acid activity and Boc-LLR-amc for trypsin-like activity of proteasome were performed at pH 7.5 and 30° C. using BMG Fluostar microplate reader (Suc=succinyl; amc=7-amino-4-methylcoumarin; Z=benzyloxycarbonyl; NA=2-naphtylamine; Boc=tert-butoxycarbonyl). The buffers were: 20 mM Tris, 1 mM DTT, 10% glycerol, 3% (v/v) DMSO (ChT-L and PA activities); 20 mM Tris, 1 mM DTT, 10% glycerol, 3% (v/v) DMSO. Studied compounds were dissolved in DMSO prior dissolution in the buffer. Proteasome was incubated for 15 min at 30° C. in the presence of the studied compound (0.1-100 μM). A control assay in the absence of tested compounds contained DMSO at the same concentration (3%, v/v). The fluorogenic proteasome substrate was then added and the hydrolysis of the appropriate fluorescent substrate was monitored for 1 h (λexc=360, λem=465 nm for amc substrates and λexc=340, λem=405 nm for the βNA substrate). Initial rates determined in control experiments were considered to be 100% of the peptidasic activity; initial rates that were above 100% in the presence of a test compound were considered to be activations, while initial rates below 100% were considered to be inhibitions. For weak inhibitors, the percentage of inhibition at a reference concentration (100 μM) is reported. The results, expressed in % inhibition (or activation factor), were obtained by calculating the average of at least two independent experiments, the variability was less than 10%. The inhibitory activity of more efficient compounds are expressed as IC50 calculated by fitting the experimental data to the equation 1: % Inhibition=100 [I]0/(IC50+[I]0)=100 (v0−vi/v0), or equation 2: % Inhibition=100 [I]0^nH/(IC50^nH+[I]0^nH), nH is the Hill number. v0 and vi are the initial rates in the absence and in the presence of inhibitor. A Dixon plot has been used to determine the inhibition constant Ki for competitive inhibition by compound A215. The reversible character of inhibition or activation was determined by measuring the activity of treated enzyme after the inhibitor molecule has been withdrawn from the reaction medium.
(§3) Inhibition of Rabbit 20 S Proteasome (pH=7.5, 30° C.)
(§4) Activation of Rabbit 20 S Proteasome (pH=7.5, 30° C., [Compound]=100 μM)

Data set [3] relates to rabbit 20S proteasome, post-acid (PA) activity. Description: Rabbit 20S proteasome fluorescent assay, post-acid activity (Z-LLE-βNA). The data set is classed as biochemical. The following applies: [Compound]=100 μM, pH 7.5, 30° C. As for the experimental part: as §1, §2, §3, §4
Data set [4] concerns rabbit 20S proteasome, trypsin-like (T-L) activity. The data set is described as follows: Rabbit 20S proteasome fluorescent assay, trypsin-like activity (Boc-LLR-amc). The class given is biochemical. The following applies: [Compound]=100 μM, pH 7.5, 30° C. As to the method:
as §1, §2, §3, §4

The conditions of data set [5]: patients enrolled in clinical trials (thrombocytopaenia, fatigue, peripheral neuropathy, neutropenia); cited from earlier work.

Structures are written as SMILES.

cathepsin-L, sequence (P07711 114-333, species assumed): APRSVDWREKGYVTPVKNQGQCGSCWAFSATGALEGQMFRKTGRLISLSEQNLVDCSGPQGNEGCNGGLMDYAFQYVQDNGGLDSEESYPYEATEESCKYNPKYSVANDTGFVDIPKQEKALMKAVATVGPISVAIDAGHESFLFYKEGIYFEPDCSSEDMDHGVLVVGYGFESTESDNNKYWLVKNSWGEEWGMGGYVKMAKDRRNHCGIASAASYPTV
cytosolic tripeptidyl peptidase II, sequence (P29144 whole entry): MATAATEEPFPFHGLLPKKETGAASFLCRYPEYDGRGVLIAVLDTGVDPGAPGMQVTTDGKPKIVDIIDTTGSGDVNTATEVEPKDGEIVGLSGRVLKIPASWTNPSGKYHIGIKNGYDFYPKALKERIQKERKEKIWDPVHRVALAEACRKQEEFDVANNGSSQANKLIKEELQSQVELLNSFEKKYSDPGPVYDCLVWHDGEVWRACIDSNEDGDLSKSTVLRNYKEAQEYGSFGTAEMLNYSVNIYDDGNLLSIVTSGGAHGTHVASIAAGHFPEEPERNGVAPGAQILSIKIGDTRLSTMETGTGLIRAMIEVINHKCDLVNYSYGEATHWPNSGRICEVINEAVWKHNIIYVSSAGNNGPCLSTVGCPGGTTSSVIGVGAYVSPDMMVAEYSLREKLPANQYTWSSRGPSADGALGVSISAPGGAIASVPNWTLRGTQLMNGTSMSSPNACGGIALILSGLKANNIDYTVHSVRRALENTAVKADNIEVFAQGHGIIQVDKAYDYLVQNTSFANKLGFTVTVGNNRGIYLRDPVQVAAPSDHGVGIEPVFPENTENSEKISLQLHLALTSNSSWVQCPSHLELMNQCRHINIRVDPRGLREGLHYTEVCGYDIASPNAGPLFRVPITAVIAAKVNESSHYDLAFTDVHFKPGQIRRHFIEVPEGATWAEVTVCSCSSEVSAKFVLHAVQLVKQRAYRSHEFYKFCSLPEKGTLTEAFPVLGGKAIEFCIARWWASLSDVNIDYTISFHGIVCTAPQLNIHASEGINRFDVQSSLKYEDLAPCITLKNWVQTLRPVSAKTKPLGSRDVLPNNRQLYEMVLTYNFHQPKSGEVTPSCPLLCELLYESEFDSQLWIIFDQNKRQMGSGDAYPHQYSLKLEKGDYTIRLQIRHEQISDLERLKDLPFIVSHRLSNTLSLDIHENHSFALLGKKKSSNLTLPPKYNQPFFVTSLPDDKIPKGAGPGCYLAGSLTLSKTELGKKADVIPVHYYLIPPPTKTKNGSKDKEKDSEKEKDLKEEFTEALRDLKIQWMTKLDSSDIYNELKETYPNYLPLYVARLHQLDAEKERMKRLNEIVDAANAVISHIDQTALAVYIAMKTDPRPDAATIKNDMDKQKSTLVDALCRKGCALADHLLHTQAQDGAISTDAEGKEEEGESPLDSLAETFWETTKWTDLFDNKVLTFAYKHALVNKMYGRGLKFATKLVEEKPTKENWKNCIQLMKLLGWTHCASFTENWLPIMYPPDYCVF

`CC(=O)N[C@@H](CSC(=O)[C@]1([C@@H](O)C(C)C)NC(=O)[C@H](C)[C@@H]1O)C(=O)O` [Lactacystin, lactacystin]: the “inhibition of cathepsin A” value on cathepsin A is “inhibited”. Also, the “inhibition of tripeptidyl peptidase II” value in data set [1] is listed as “inhibited”.

For `C/C=C\NC(=O)[C@H]1NC(=O)[C@H](CC(N)=O)NC(=O)[C@@H](NC(=O)C(=O)[C@@H](C)CC)Cc2ccc(O)c(c2)-c2cccc3c2NC(=O)[C@@]3(O)[C@@H]1O` [TMC-95A], the inhibition of m-calpain result at m-calpain is listed as “no inhibition”. Further, the “inhibition of cathepsin-L” value at cathepsin-L is on record as “no inhibition”. For the same compound, the inhibition of trypsin result at trypsin is reported as “no inhibition”.

Regarding `C[C@H](NC(=O)[C@H](Cc1ccc(OCc2ccccc2)cc1)NC(=O)OC(C)(C)C)C(=O)N[C@@H](Cc1c[nH]c2ccccc12)C(=O)NCCCCNC(=O)OC(C)(C)C` [SP305R, N-Boc-Tyr(Bn)-Ala-Trp-NH(CH2)4NHBoc], the “CT-L Activation factor” value in data set [2] is 1.5. The “PA Activation factor” value in [3] amounted to 1.2. Further, the “T-L Activation factor” value in data set [4] is recorded as 3.2.

On to `CC(C)(C)OC(=O)NCCCCNC(=O)[C@H](Cc1c[nH]c2ccccc12)NC(=O)[C@H](CC(N)=O)NC(=O)[C@H](Cc1ccc(OCc2ccccc2)cc1)NC(=O)OC(C)(C)C` [SP323C2, N-Boc-Tyr(Bn)-Asn-Trp-NH(CH2)4NHBoc], for which, in data set [2], the “CT-L Activation factor” value was found to be 1.6. Moreover, in data set [3], the “PA Activation factor” value came out at 1.2. In addition, in [4], the “T-L Activation factor” value was 2.2.

Consider `CC(C)C[C@H](NC(=O)[C@H](Cc1ccccc1)NC(=O)c1cnccn1)B(O)O` [Bortezomib, bortezomib], for which the “patients with adverse events” value in [5] is 30%.
